Test results taken from patent US4376772A, “Use of piperazinyl-imidazo[1,2-a]pyrazines in sedation” (Merck & Co., Inc., priority 1981, dated 1983).

What was measured:
[1] = molecular target: T1, α2-adrenergic receptor ([3H] clonidine binding site in calf cerebral cortex) (Bos taurus, UniProt Q28838); assay: α2-adrenergic receptor binding ([3H] clonidine binding site)
T1 construct: from tissue; host or cells: calf cerebral cortex
T1 sequence (Q28838 1-468): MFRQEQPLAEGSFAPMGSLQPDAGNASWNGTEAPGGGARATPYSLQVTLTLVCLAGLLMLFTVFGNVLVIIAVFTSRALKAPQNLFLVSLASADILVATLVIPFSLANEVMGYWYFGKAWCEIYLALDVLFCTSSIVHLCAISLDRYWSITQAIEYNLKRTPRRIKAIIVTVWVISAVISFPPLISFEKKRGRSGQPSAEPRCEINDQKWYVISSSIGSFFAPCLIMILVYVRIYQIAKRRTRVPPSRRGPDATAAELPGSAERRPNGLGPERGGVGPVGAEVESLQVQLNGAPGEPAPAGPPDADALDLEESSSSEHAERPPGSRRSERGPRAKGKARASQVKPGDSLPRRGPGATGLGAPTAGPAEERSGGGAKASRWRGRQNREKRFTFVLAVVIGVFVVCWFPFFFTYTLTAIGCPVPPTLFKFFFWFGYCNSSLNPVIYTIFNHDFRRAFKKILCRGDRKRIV
Method: Binding to the α2 -adrenergic receptor was determined by the method of Lyon and Randall, Life Sciences, 26, 1121 (1980) and also is expressed in Table I as Ki representing the affinity of each compound for the [^3 H] clonidine binding site in calf cerebral cortex.

[2] = molecular target: α1-adrenergic receptor ([3H] prazosin binding site in calf cerebral cortex); assay: α1-adrenergic receptor binding ([3H] prazosin binding site)
Method: The α1 - and α2 -adrenergic receptor binding as determined for some of the active compounds of this invention are shown in Table I.
Extent of binding to the α1 -adrenergic receptor was determined by the method of Greengrass and Bremner, Eur. J. Pharmacol., 55, 323 (1979) and is expressed in Table I as Ki, representing the affinity of each compound for the [^3 H] prazosin binding site in calf cerebral cortex.

[3] = test system: α-Methyldopa (α-MD) Depression of Rat Locomotor Activity; assay: Antagonism of α-methyldopa (α-MD) depression of rat locomotor activity; format: in vivo, Female Sprague-Dawley rats; conditions: 20-minute period
Text: Female Sprague-Dawley rats (Sprague-Dawley, Madison, Wis.) weighing 55-90 g were used in these studies. The test apparatus consisted of 10 activity chambers in a closed metal cabinet separated into individual compartments measuring 43×43 cm with a solid partition between each chamber. Ventilation in the cabinet was provided by two high speed fans, and background noise was supplied with a Grason-Stadler Noise Generator. The activity chambers were constructed from clear plexiglass cylinders, 30 cm high by 30 cm in diameter. Two infrared photocells were mounted at a height of 3 cm above the floor, the receivers being at the same height and directly opposite. Interruption of either of the beams registered independently as an activity count. The accumulated locomotor activity counts were stored in a microprocessor-based acquisition system and printed out at a preprogrammed interval on an ASR-33 Teletype unit. The decrease in locomotor activity caused by α-MD is most readily demonstrable during the time immediately following introduction of the rats into the test apparatus. Therefore, activity counts were recorded for a 20-minute period, beginning with placement of the animals in the test chambers. Animals with the various treatments were systematically rotated through the chambers. […] Dunnett's test was used for comparison of several treatment groups with a control group and the least significant difference test for comparison of the means of any two treatment groups. A P value of 0.05 (two-sided) was considered as indicating significance.
Animals were pretreated (3 hours, 4 minutes) with α-MD (200 or 400 mg/kg, p.o.), and various doses of 8-(1-piperazinyl)imidazo[1,2-a]pyrazine.2HCl.H2 O (0.11-3.0 mg/kg, sc) 40 minutes prior to testing. Vehicles used in control animals were 1% methylcellulose (in which α-MD was suspended) and saline (in which the experimental compound was dissolved).

[4] = test system: sedation produced by clonidine; conditions: Drew et al., 1979; cited from earlier work
[5] = test system: locomotor depressant effects of methyldopa in rats; conditions: Clineschmidt et al., 1980; cited from earlier work
[6] = test system: clonidine-induced sedation in man; conditions: Autret et al., 1977; cited from earlier work

c1cn2ccnc2c(N2CCNCC2)n1 [Compound 3, 8-(1-piperazinyl)imidazo[1,2-a]pyrazine]
Ki [1]: 15 nM
Ki [2]: 3100 nM

Cl.Cl.O.c1cn2ccnc2c(N2CCNCC2)n1 [Compound, 8-(1-piperazinyl)imidazo[1,2-a]pyrazine dihydrochloride hydrate]
locomotor activity (square roots of activity counts) ([3]; experiment 1, compound 0.11 mg/kg s.c. 40 min, with α-MD 400 mg/kg p.o.): 5.1 ± 0.5
locomotor activity (square roots of activity counts) ([3]; experiment 1, compound 0.33 mg/kg s.c. 40 min, with α-MD 400 mg/kg p.o.): 8.4 ± 0.9
locomotor activity (square roots of activity counts) ([3]; experiment 1, compound 1.0 mg/kg s.c. 40 min, with α-MD 400 mg/kg p.o.): 11.7 ± 1.3
locomotor activity (square roots of activity counts) ([3]; experiment 1, compound 3 mg/kg s.c. 40 min after α-MD 400 mg/kg p.o.): 11.6 ± 1.3
locomotor activity (square roots of activity counts) ([3]; experiment 2, compound 0.11 mg/kg s.c. 40 min, with α-MD 200 mg/kg p.o.): 8.4 ± 1.1
locomotor activity (square roots of activity counts) ([3]; experiment 2, compound 0.33 mg/kg s.c. 40 min, with α-MD 200 mg/kg p.o.): 9.5 ± 1.2
locomotor activity (square roots of activity counts) ([3]; experiment 2, compound 1.0 mg/kg s.c. 40 min, with α-MD 200 mg/kg p.o.): 11.4 ± 1.2
locomotor activity (square roots of activity counts) ([3]; experiment 2, compound 3.0 mg/kg s.c. 40 min, with α-MD 200 mg/kg p.o.): 12.2 ± 1.2

Clc1cn2ccnc2c(N2CCNCC2)n1 [Compound 1]
Ki [1]: 73 nM
Ki [2]: 250 nM

C[C@](N)(Cc1ccc(O)c(O)c1)C(=O)O [α-MD, α-Methyldopa, reference compound]
locomotor activity (square roots of activity counts) ([3]; experiment 1, α-MD 400 mg/kg p.o. 3 hr + saline s.c.): 4.7 ± 0.7
locomotor activity (square roots of activity counts) ([3]; experiment 2, α-MD 200 mg/kg p.o. 3 hr + saline s.c.): 6.8 ± 0.5

COC(=O)[C@@H]1[C@H]2C[C@H]3c4[nH]c5ccccc5c4CCN3C[C@@H]2CC[C@@H]1O [yohimbine]
effect on sedation produced by clonidine [4]: antagonizes the sedation produced by clonidine
effect on locomotor depressant effects of methyldopa [5]: antagonizes
effect on clonidine-induced sedation in man [6]: reduce clonidine-induced sedation in man

Clc1cnc2c(N3CCNCC3)nccn12 [Compound 2]
Ki [1]: 240 nM
Ki [2]: 2800 nM

CN1CCN(c2nc(Cl)cn3ccnc23)CC1 [Compound 4]
Ki [1]: 121 nM
Ki [2]: 380 nM
